# Test results: patent US20250195513A1, “DEGRADATION OF IRAK4 BY CONJUGATION OF IRAK4 INHIBITORS WITH E3 LIGASE LIGAND AND METHODS OF USE” (BeiGene, Ltd., priority 2022, published 2025)
# Like-named read-outs stand apart in the source and are kept apart here.
# Molecular target: T1, IRAK4 (Homo sapiens, UniProt Q9NWZ3)
# T1 construct: endogenous in cells; host or cells: Karpas299
# T1 sequence (Q9NWZ3 1-460): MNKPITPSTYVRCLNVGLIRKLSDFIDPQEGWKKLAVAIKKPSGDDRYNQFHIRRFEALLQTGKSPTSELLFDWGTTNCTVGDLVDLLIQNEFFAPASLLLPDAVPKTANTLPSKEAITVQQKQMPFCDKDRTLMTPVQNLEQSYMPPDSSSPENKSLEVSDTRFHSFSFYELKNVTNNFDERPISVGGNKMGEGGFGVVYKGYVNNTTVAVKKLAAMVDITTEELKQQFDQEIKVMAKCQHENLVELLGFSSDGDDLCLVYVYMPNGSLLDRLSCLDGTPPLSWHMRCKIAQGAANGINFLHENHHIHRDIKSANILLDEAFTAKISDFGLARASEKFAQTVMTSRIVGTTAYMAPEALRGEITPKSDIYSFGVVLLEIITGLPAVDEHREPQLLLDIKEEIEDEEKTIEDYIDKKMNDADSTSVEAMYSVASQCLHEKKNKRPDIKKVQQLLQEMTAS
# Test: IRAK4 Degradation Assay (Karpas299, HTRF/TR-FRET)
# Format: cell-based
# Method in brief: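 Compound potency as DC50 (IC50) came from four-parameter fits of percent IRAK4 degradation. IRAK4 was measured by HTRF (665/620 nm) in lysates of Karpas299 cells seeded at 0.2 million per well. Cells had been treated with compound dilutions for 5 or 24 h.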
# [1] = Degradation (Karpas-299), comparison table, Linker Type A, read-out: Compound (Linker Type A) DC50
# [2] = Degradation (Karpas-299), comparison table, Linker Type A, read-out: Compound (Linker Type A) Dmax (%)
# [3] = Karpas-299 cells, 24 h treatment, maximum percentage of degradation, read-out: IRAK4 in Karpas-299 (24 h) Dmax (%)
# [4] = Karpas-299 cells, 24 h treatment, read-out: IRAK4 in Karpas-299 (24 h) DC50
# [5] = Karpas-299 cells, 5 h treatment, maximum percentage of degradation, read-out: IRAK4 in Karpas-299 (5 h) Dmax (%)
# [6] = Karpas-299 cells, 5 h treatment, read-out: IRAK4 in Karpas-299 (5 h) DC50
Compound,DC50 [1],Dmax [2],Dmax [3],DC50 [4],Dmax [5],DC50 [6]
"COc1cc2nn([C@H]3CC[C@H](CN4CCN(C(=O)C5CN(c6ccc(N7CCC(=O)NC7=O)cc6)C5)CC4)CC3)cc2cc1NC(=O)c1cccc(C(F)(F)F)n1 [Example 5, N-(2-((1r,4r)-4-((4-(1-(4-(2,4-dioxotetrahydropyrimidin-1(2H)-yl)phenyl)azetidine-3-carbonyl)piperazin-1-yl)methyl)cyclohexyl)-6-methoxy-2H-indazol-5-yl)-6-(trifluoromethyl)picolinamide]",14 nM,92%,92%,14 nM,–,–
"Cc1cc(-c2nc(C(=O)Nc3cn(-c4ccc(N5CCN(C(=O)C6CN(c7ccc(N8CCC(=O)NC8=O)cc7)C6)CC5)nc4)nc3C(N)=O)co2)ccn1 [Example 31, N-(3-carbamoyl-1-(6-(4-(1-(4-(2,4-dioxotetrahydropyrimidin-1(2H)-yl)phenyl)azetidine-3-carbonyl)piperazin-1-yl)pyridin-3-yl)-1H-pyrazol-4-yl)-2-(2-methylpyridin-4-yl)oxazole-4-carboxamide]",–,–,96%,5.8 nM,89%,8.2 nM
"CC1(C)OC(c2ccc3cc(C#N)cnn23)=Nc2cc3cn(C4CCN(C5CCN(C(=O)[C@@H]6CCN(c7cc(F)c([C@H]8CCC(=O)NC8=O)c(F)c7)C6)CC5)CC4)nc3cc21 [Example 412, 7-(2-(1′-((R)-1-(4-((R)-2,6-dioxopiperidin-3-yl)-3,5-difluorophenyl)pyrrolidine-3-carbonyl)-[1,4′-bipiperidin]-4-yl)-8,8-dimethyl-2,8-dihydro-[1,3]oxazino[4,5-f]indazol-6-yl)pyrrolo[1,2-b]pyridazine-3-carbonitrile]",–,–,5%,> 10000 nM,–,–
"O=C1CCN(c2c(F)cc(N3CC(C(=O)N4CCN([C@H]5CC[C@H](n6cc(NC(=O)c7coc(-c8ccnc(NCC(F)(F)F)c8)n7)c(C(F)F)n6)CC5)CC4)C3)cc2F)C(=O)N1 [Example 76, N-(3-(difluoromethyl)-1-((1r,4r)-4-(4-(1-(4-(2,4-dioxotetrahydropyrimidin-1(2H)-yl)-3,5-difluorophenyl)azetidine-3-carbonyl)piperazin-1-yl)cyclohexyl)-1H-pyrazol-4-yl)-2-(2-((2,2,2-trifluoroethyl)amino)pyridin-4-yl)oxazole-4-carboxamide]",–,–,97%,3.2 nM,–,–
"O=C1CCC(c2ccc(N3CC(C(=O)N4CCN([C@H]5CC[C@H](n6cc(NC(=O)c7coc(-c8ccnc(NCC(F)(F)F)c8)n7)c(C(F)F)n6)CC5)CC4)C3)cc2)C(=O)N1 (stereo partly shown) [Example 175, N-(3-(difluoromethyl)-1-((1r,4r)-4-(4-(1-(4-(2,6-dioxopiperidin-3-yl)phenyl)azetidine-3-carbonyl)piperazin-1-yl)cyclohexyl)-1H-pyrazol-4-yl)-2-(2-((2,2,2-trifluoroethyl)amino)pyridin-4-yl)oxazole-4-carboxamide]",–,–,100%,1.7 nM,88%,12 nM
"COc1cc2nn(C3CCN(C4CCN(C(=O)[C@@H]5CCN(c6cc(F)c([C@H]7CCC(=O)NC7=O)c(F)c6)C5)CC4)CC3)cc2cc1NC(=O)c1cccc(C(F)(F)F)n1 [Example 43, N-(2-(1′-((R)-1-(4-((R)-2,6-dioxopiperidin-3-yl)-3,5-difluorophenyl)pyrrolidine-3-carbonyl)-[1,4′-bipiperidin]-4-yl)-6-methoxy-2H-indazol-5-yl)-6-(trifluoromethyl)picolinamide]",–,–,95%,7.7 nM,–,–
"CC(C)(O)c1cc2nn(C3CCN([C@@H]4CCN(C(=O)C5CN(c6cc(F)c(N7CCC(=O)NC7=O)c(F)c6)C5)CC4(F)F)CC3)cc2cc1NC(=O)c1ccc2cc(C#N)cnn12 [Example 198, (R)-3-cyano-N-(2-(1′-(1-(4-(2,4-dioxotetrahydropyrimidin-1(2H)-yl)-3,5-difluorophenyl)azetidine-3-carbonyl)-3′,3′-difluoro-[1,4′-bipiperidin]-4-yl)-6-(2-hydroxypropan-2-yl)-2H-indazol-5-yl)pyrrolo[1,2-b]pyridazine-7-carboxamide]",–,–,93%,9 nM,–,–
"O=C1CC[C@H](c2c(F)cc(N3CC[C@@H](C(=O)N4CCN([C@H]5CC[C@H](n6cc(NC(=O)c7cnn(-c8ccnc(NCC(F)(F)F)c8)n7)c(C(F)F)n6)CC5)CC4)C3)cc2F)C(=O)N1 [Example 52, N-(3-(difluoromethyl)-1-((1R,4r)-4-(4-((R)-1-(4-((R)-2,6-dioxopiperidin-3-yl)-3,5-difluorophenyl)pyrrolidine-3-carbonyl)piperazin-1-yl)cyclohexyl)-1H-pyrazol-4-yl)-2-(2-((2,2,2-trifluoroethyl)amino)pyridin-4-yl)-2H-1,2,3-triazole-4-carboxamide]",–,–,96%,2 nM,–,–
"CC(C)c1cc(-c2nc(C(=O)Nc3cn([C@H]4CC[C@H](N5CCN(C(=O)[C@@H]6CCN(c7cc(F)c([C@H]8CCC(=O)NC8=O)c(F)c7)C6)CC5)CC4)nc3C(F)F)co2)ccn1 [Example 85, N-(3-(difluoromethyl)-1-((1R,4r)-4-(4-((R)-1-(4-((R)-2,6-dioxopiperidin-3-yl)-3,5-difluorophenyl)pyrrolidine-3-carbonyl)piperazin-1-yl)cyclohexyl)-1H-pyrazol-4-yl)-2-(2-isopropylpyridin-4-yl)oxazole-4-carboxamide]",–,–,95%,5.2 nM,–,–
"NC(=O)c1nn([C@H]2CC[C@H](N3CCN(C(=O)C4CN(c5ccc(N6CCC(=O)NC6=O)cc5)C4)CC3)CC2)cc1NC(=O)c1coc(-c2ccnc(NCC(F)(F)F)c2)n1 [Example 8, N-(3-carbamoyl-1-((1r,4r)-4-(4-(1-(4-(2,4-dioxotetrahydropyrimidin-1(2H)-yl)phenyl)azetidine-3-carbonyl)piperazin-1-yl)cyclohexyl)-1H-pyrazol-4-yl)-2-(2-((2,2,2-trifluoroethyl)amino)pyridin-4-yl)oxazole-4-carboxamide]",–,–,97%,2.1 nM,–,–
"N#Cc1cnn2c(C(=O)Nc3cc4cn([C@H]5CC[C@H](N6CCN(C7CN(c8cc(F)c([C@H]9CCC(=O)NC9=O)c(F)c8)C7)CC6)CC5)nc4c4c3OC(F)(F)O4)ccc2c1 [Example 385, 3-cyano-N-(2-((1R,4r)-4-(4-(1-(4-((R)-2,6-dioxopiperidin-3-yl)-3,5-difluorophenyl)azetidin-3-yl)piperazin-1-yl)cyclohexyl)-7,7-difluoro-2H-[1,3]dioxolo[4,5-g]indazol-5-yl)pyrrolo[1,2-b]pyridazine-7-carboxamide]",–,–,91%,4.8 nM,–,–
O=C1CC[C@H](c2c(F)cc(N3CC(C(=O)N4CCN(c5ccc(-n6cc(NC(=O)c7coc(-c8ccnc(NCC9CC9)c8)n7)c(C(F)F)n6)cn5)CC4)C3)cc2F)C(=O)N1 [Example 90],–,–,96%,3.1 nM,–,–
"COc1cc2nn(C3CCN(C(=O)[C@H]4CC[C@H](Oc5ccc(C6CCC(=O)NC6=O)cc5)CC4)CC3)cc2cc1NC(=O)c1cccc(C(F)(F)F)n1 (stereo partly shown) [Example 35, N-(2-(1-((1r,4r)-4-(4-(2,6-dioxopiperidin-3-yl)phenoxy)cyclohexane-1-carbonyl)piperidin-4-yl)-6-methoxy-2H-indazol-5-yl)-6-(trifluoromethyl)picolinamide]",> 10000 nM,10%,10%,> 10000 nM,–,–
